Data: patent publication US9346787B2, “Piperidine compound or salt thereof” (TAIHO PHARMACEUTICAL CO., LTD., priority 2012, dated 2016)

Assays:
[1] = tested on: human uterine cervical cancer cell line (Hela-Luc); assay: Evaluation of the anti-tumor effect (1), Hela-Luc subcutaneous transplant; settings: for BWC (body weight change) / RTV (relative tumor volume): paclitaxel 30 mg/kg i.v. day 1, compound 60 mg/kg orally twice a day on day 2 and day 3; for potentiation of the anti-tumor effect of paclitaxel (in words): combination with paclitaxel versus paclitaxel-only group
Excerpt: The luciferase-introduced human uterine cervical cancer cell line (Hela-Luc) was subcutaneously transplanted into a nude mouse, and when the volume of the grafted tumor reached 100 to 200 mm^3, five mice in one group were grouped into the single drug administration group and combinational administration group by a randomized stratification method so as to achieve a uniform tumor volume in each group (day 1). […] In order to compare the anti-tumor effect brought about by drug administration, setting the tumor volume at the time of grouping at 1, the relative tumor volume (RTV) was determined in accordance with the following formula as a rate of tumor proliferation. RTV=(Tumor volume on the day of measurement of tumor volume)/(Tumor volume at the time of grouping)
Meanwhile, as the index of systemic toxicity caused by drug administration, the body weight change (BWC) was used. BWC (%)=([(Body weight of mouse on the day of body weight measurement)−(Body weight of mouse at the time of grouping)]/(Body weight of mouse at the time of grouping))×100

human aurora B = human aurora B (Homo sapiens (Human), UniProt Q96GD4); assay: Inhibitory activity on aurora B kinase; assay type: biochemical; settings: ATP 40 μM, 60 minutes
Procedure: (§1) The inhibitory activity of a test compound on aurora A and aurora B was measured in accordance with the following method.

human aurora A = human aurora A (Homo sapiens (Human), UniProt O14965); assay: Inhibitory activity on aurora A kinase (IMAP fluorescence polarization); assay type: biochemical
Procedure: as §1
The cDNA encoding human aurora A having a N-term fused histidine tag was inserted into an expression vector and this protein was expressed at a high level in the E. coli BL21-CodonPlus (DE3)-RIL strain. The E. coli were collected and solubilized, and histidine tag-fused human aurora A protein was extracted by adsorption to a nickel chelate column and then eluted with imidazole from the column. The active fraction was desalted with a desalting column, whereby a purified enzyme was obtained.

[2] = Evaluation of oral absorbability (plasma concentration after oral administration); assay type: in vivo; settings: 0.5% HPMC, BALB/cA mouse, plasma 0.5-6 hours
Procedure: The test compound was suspended or dissolved in 0.5% HPMC and orally administered to a BALB/cA mouse. The blood was drawn from the retro-orbital venous plexus 0.5, 1, 2, 4, and 6 hours after oral administration to obtain plasma. The concentration of the compound in the plasma thus obtained was measured by LCMS and the oral absorbability was evaluated.

[3] = tested on: human uterine cervical cancer cell line (Hela-Luc); assay: Evaluation of the anti-tumor effect (2), Hela-Luc subcutaneous transplant; assay type: in vivo, nude mouse; settings: for BWC (body weight change) / RTV (relative tumor volume): Day 11, paclitaxel 20 mg/kg i.v. day 1; for potentiation of the anti-tumor effect of paclitaxel (in words): combination with paclitaxel versus paclitaxel-only group
[4] = Compound 13 30 mg/kg orally twice a day on day 2 and day 3
[5] = Compound 22 100 mg/kg (single) or 60 mg/kg (combination) orally twice a day on day 2 and day 3

Chain of human aurora A (O14965 whole entry): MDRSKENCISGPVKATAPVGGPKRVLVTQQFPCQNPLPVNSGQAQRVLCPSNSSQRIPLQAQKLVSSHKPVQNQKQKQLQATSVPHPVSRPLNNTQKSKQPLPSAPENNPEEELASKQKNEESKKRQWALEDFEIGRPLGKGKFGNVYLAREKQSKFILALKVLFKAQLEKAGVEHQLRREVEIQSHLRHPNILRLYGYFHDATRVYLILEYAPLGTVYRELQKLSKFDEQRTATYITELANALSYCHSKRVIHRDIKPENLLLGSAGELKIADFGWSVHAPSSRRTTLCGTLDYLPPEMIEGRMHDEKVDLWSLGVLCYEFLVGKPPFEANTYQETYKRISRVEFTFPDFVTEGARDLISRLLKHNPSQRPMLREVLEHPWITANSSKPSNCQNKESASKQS
Chain of human aurora B (Q96GD4 whole entry): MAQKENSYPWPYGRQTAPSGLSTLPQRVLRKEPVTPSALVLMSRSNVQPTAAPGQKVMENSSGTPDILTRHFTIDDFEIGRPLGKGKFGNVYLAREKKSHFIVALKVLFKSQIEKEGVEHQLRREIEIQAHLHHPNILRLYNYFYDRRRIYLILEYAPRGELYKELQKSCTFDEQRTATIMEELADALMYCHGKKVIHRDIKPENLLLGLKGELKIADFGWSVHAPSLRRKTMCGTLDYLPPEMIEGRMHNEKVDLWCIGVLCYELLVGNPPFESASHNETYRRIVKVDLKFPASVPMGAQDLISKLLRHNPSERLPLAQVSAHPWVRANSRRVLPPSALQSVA
Chain of human aurora B (Q9NQS7 803-918 partner): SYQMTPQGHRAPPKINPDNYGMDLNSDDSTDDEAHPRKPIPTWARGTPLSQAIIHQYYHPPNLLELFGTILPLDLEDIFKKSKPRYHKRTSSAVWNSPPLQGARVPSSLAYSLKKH

## O=C(c1cccc(Cl)c1F)N1CCC(Cc2cccc(Nc3cc[nH]n3)n2)(c2n[nH]c(=O)o2)CC1 [Comparative Example 1, 5-(1-(3-chloro-2-fluorobenzoyl)-4-((6-(1H-pyrazol-3-ylamino)pyridin-2-yl)methyl)piperidin-4-yl)-1,3,4-oxadiazol-2(3H)-one]
[1]; Day 23
  BWC (body weight change): 11.6%
  RTV (relative tumor volume): 15.23
[1]
  potentiation of the anti-tumor effect of paclitaxel (in words): did not clearly potentiate the anti-tumor effect

## Cc1cc(Nc2nc(CC3(C(=O)O)CCN(C(=O)c4cccc(Cl)c4F)CC3)ccc2C#N)n[nH]1 [Comparative Example 6, 1-(3-chloro-2-fluorobenzoyl)-4-((5-cyano-6-(5-methyl-H-pyrazol-3-ylamino)pyridin-2-yl)methyl)piperidine-4-carboxylic acid]
Human aurora B
  IC50: 0.32 µM
Human aurora A; ATP 5 μM, 25° C., 50 minutes
  IC50: 0.22 µM
Human aurora A; compared with aurora B and with MLN8237
  inhibitory activity on aurora A and selectivity for aurora A (in words): did not exhibit either inhibitory activity on aurora A or selectivity for aurora A

## Cc1cc(Nc2nc(CC3(C(=O)O)CCN(C(=O)c4cccc(Cl)c4Cl)CC3)ccc2F)n[nH]1 [Example 1, 1-(2,3-dichlorobenzoyl)-4-((5-fluoro-6-(5-methyl-1H-pyrazol-3-ylamino)pyridin-2-yl)methyl)piperidine-4-carboxylic acid]
[1]; Day 23
  BWC (body weight change): 11.6%
  RTV (relative tumor volume): 10.47
[1]
  potentiation of the anti-tumor effect of paclitaxel (in words): remarkably potentiated
[2]
  oral absorbability (plasma concentration after oral administration): favorable oral absorbability

## COc1ccc(CC2(C(=O)O)CCN(C(=O)c3cccc(Cl)c3F)CC2)nc1Nc1cc(C)[nH]n1 [Example 11, 1-(3-chloro-2-fluorobenzoyl)-4-((5-methoxy-6-(5-methyl-1H-pyrazol-3-ylamino)pyridin-2-yl)methyl)piperidine-4-carboxylic acid]
[2]
  oral absorbability (plasma concentration after oral administration): favorable oral absorbability

## Cc1cc(Nc2nc(CC3(C(=O)O)CCN(C(=O)c4cccc(Cl)c4F)CC3)ccc2Cl)n[nH]1 [Example 12, 1-(3-chloro-2-fluorobenzoyl)-4-((5-chloro-6-(5-methyl-1H-pyrazol-3-ylamino)pyridin-2-yl)methyl)piperidine-4-carboxylic acid]
[2]
  oral absorbability (plasma concentration after oral administration): favorable oral absorbability

## Cc1cc(Nc2nc(CC3(C(=O)O)CCN(C(=O)c4cccc(Cl)c4F)CC3)ccc2F)n[nH]1 [Example 13, 1-(3-chloro-2-fluorobenzoyl)-4-((5-fluoro-6-(5-methyl-1H-pyrazol-3-ylamino)pyridin-2-yl)methyl)piperidine-4-carboxylic acid]
[3]; [4]
  BWC (body weight change): 6.0%
  RTV (relative tumor volume): 6.54
[3]
  potentiation of the anti-tumor effect of paclitaxel (in words): remarkably potentiated
[2]
  oral absorbability (plasma concentration after oral administration): favorable oral absorbability

## Cc1cc(Nc2nc(CC3(C(=O)N4CCC4)CCN(C(=O)c4cccc(Cl)c4F)CC3)ccc2F)n[nH]1 [Example 19, azetidin-1-yl(1-(3-chloro-2-fluorobenzoyl)-4-((5-fluoro-6-(5-methyl-1H-pyrazol-3-ylamino)pyridin-2-yl)methyl)piperidin-4-yl)methanone]
Human aurora B
  IC50: 0.68 µM

## Cc1cc(Nc2nc(CC3(c4noc(C)n4)CCN(C(=O)c4cccc(Cl)c4F)CC3)ccc2F)n[nH]1 [Example 22, (3-chloro-2-fluorophenyl)(4-((5-fluoro-6-(5-methyl-1H-pyrazol-3-ylamino)pyridin-2-yl)methyl)-4-(5-methyl-1,2,4-oxadiazol-3-yl)piperidin-1-yl)methanone]
[3]; [5]
  BWC (body weight change): 6.9%
  RTV (relative tumor volume): 4.66
[3]
  potentiation of the anti-tumor effect of paclitaxel (in words): remarkably potentiated
[2]
  oral absorbability (plasma concentration after oral administration): favorable oral absorbability

## CC(=O)O[C@H]1C(=O)[C@@]2(C)[C@H]([C@H](OC(=O)c3ccccc3)[C@]3(O)C[C@H](OC(=O)[C@H](O)[C@@H](NC(=O)c4ccccc4)c4ccccc4)C(C)=C1C3(C)C)[C@]1(OC(C)=O)CO[C@@H]1C[C@@H]2O [Paclitaxel, paclitaxel]
[3]; [4]
  BWC (body weight change): 5.4%
  RTV (relative tumor volume): 2.90
[3]; [5]
  BWC (body weight change): 7.8%
  RTV (relative tumor volume): 3.05
[1]; Day 23
  BWC (body weight change): 3.0%
  RTV (relative tumor volume): 0.69
[1]; Day 46
  BWC (body weight change): 11.6%
  RTV (relative tumor volume): 5.38
[1]; Day 46, ratio of individuals in which RTV does not exceed 1
  DCR (disease control rate): 40%
